Experimental data as given in patent US10150737B2, “Compounds for controlling arthropods” (priority 2013, dated 2018).

Tests used:
[1] = logP determination by HPLC on a reversed-phase column (C18); type: physicochemical; conditions: for logP^a): HPLC-MS method a); for log P: HPLC-MS
[2] = test system: Rhipicephalus sanguineus; assay: Rhipicephalus sanguineus - in vitro contact tests with adult brown dog ticks; type: in vivo; conditions: after 48 h, ticks dead or moribund
Outline: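 Test tubes coated with active ingredient in acetone, 5 μg/cm^2 at 900 ppm. 5-10 adult ticks per tube, kept dark at room temperature for 48 h. Ticks then heated at 45-50° C ≤5 min; motionless or uncoordinated ticks scored dead/moribund, efficacy as % dead or moribund.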

[3] = test system: Ctenocephalides felis; assay: Ctenocephalides felis - in vitro contact tests with adult cat fleas; type: in vivo; conditions: application rate 5 μg/cm2 (=500 g/ha); after 48 h; fleas dead or moribund
Outline: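 Tubes coated with compound in acetone (250 μl of 900 ppm solution gives 5 μg/cm^2 on 44.7 cm^2), solvent evaporated, then 5–10 adult fleas added and kept horizontal at room temperature and ambient humidity. After 48 h, dead or moribund (motionless/uncoordinated) fleas scored as % efficacy.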

[4] = test system: Amblyomma hebraeum; assay: Amblyomma hebaraeum test (tick nymphs, immersion); type: in vivo; conditions: application rate 100 ppm; tick nymphs immersed one minute; after 42 days
Outline: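 Tick nymphs immersed for one minute in compound diluted in water from a DMSO concentrate, then held on filter paper in a Petri dish in a climate-controlled cabinet. Kill (%) scored after 42 days; 100% means all ticks dead, 0% none.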

[5] = test system: Boophilus microplus; assay: Boophilus microplus - injection test; type: in vivo; conditions: application rate 20 μg/animal, injection into engorged adult female ticks, after 7 days
Outline: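 Active ingredient in DMSO, 1 μl injected into the abdomen of 5 engorged adult female ticks, then held in a climate-controlled room. Efficacy scored after 7 days from laying of fertile eggs, with non-fertile-looking eggs kept about 42 days for larval hatch; 100% means no fertile eggs.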

[6] = test system: Boophilus microplus Parkhurst strain, SP-resistant; assay: Boophilus microplus - dip test; type: in vivo; conditions: application rate 100 ppm; dip of engorged adult female ticks; after 7 days
Outline: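 SP-resistant Parkhurst strain engorged adult female Boophilus microplus (8-10 per tube) dipped in DMSO-based compound dilutions in water, then kept in a climate-controlled room. Efficacy scored after 7 days from fertile egg laying, with larval hatch checked after about 42 days; 100% means no fertile eggs.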

[7] = test system: Ctenocephalides felis; assay: Ctenocephalides felis - oral test; type: in vivo; conditions: application rate 100 ppm in citrated cattle blood; after 2 days
Outline: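 Compound in DMSO diluted into citrated cattle blood, fed through a parafilm membrane to about 20 unfed adult cat fleas. Kill in % scored after 2 days (100% = all dead).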

[8] = test system: Lucilia cuprina; assay: Lucilia cuprina test; type: in vivo; conditions: application rate 100 ppm; L1 larvae; after 2 days
Outline: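 About 20 L1 larvae placed on minced horsemeat treated with compound, formulated in DMSO and diluted with water to test concentration. Kill in % scored after 2 days (100% = all larvae dead, 0% = none).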

[9] = test system: Musca domestica; assay: Musca domestica test; type: in vivo; conditions: application rate 100 ppm; adult houseflies; after 2 days
Outline: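 Percent kill of adult houseflies is recorded 2 days after exposure, where 100% denotes all flies dead and 0% none. Flies (10 per vessel) feed from a sponge carrying sugar solution and the aqueous-diluted DMSO formulation.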

[10] = test system: Myzus persicae; assay: Myzus persicae - spray test; type: in vivo; conditions: Chinese cabbage leaf discs, after 6 days
Outline: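 Chinese cabbage leaf discs carrying all stages of Myzus persicae sprayed with compound in acetone/DMF diluted in water with 1000 ppm emulsifier. Efficacy (% aphids killed) assessed after 6 days.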

[11] = test system: Phaedon cochleariae; assay: Phaedon cochleariae - spray test; type: in vivo; conditions: larvae on Chinese cabbage leaf discs, after 7 days
Outline: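 Chinese cabbage leaf discs sprayed with compound formulated in acetone/DMF and water containing 1000 ppm emulsifier; once dry, infested with mustard beetle larvae. Efficacy (% larvae killed) scored after 7 days.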

[12] = test system: Spodoptera frugiperda; assay: Spodoptera frugiperda - spray test; type: in vivo; conditions: caterpillars on maize leaf discs, after 7 days
Outline: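 Maize leaf discs sprayed with compound formulated in acetone/DMF and diluted in water containing 1000 ppm alkylaryl polyglycol ether emulsifier, then infested with armyworm caterpillars after drying. Efficacy scored after 7 days as % caterpillars killed (100% all, 0% none).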

[13] = test system: Tetranychus urticae; assay: Tetranychus urticae - spray test, OP-resistant; type: in vivo; conditions: bean leaf discs, after 6 days
Outline: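 Compound dissolved in acetone/DMF, diluted with water containing 1000 ppm alkylaryl polyglycol ether emulsifier to test concentrations. Bean leaf discs infested with all stages of spider mites were sprayed; % kill determined after 6 days (100% = all mites dead, 0% = none).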

[14] = test system: Anopheles funestus strain FUMOZ-R; assay: Anopheles test (ANPHFU surface treatment); type: in vivo; conditions: read-out: efficacy (mortality)
Procedure: (§1) Solvent: acetone+2000 ppm rapeseed oil methyl ester (RME)
(§2) To produce an appropriate active ingredient formulation, the active ingredient is dissolved in the solvent (2 mg/ml). The active ingredient formulation is pipetted onto a glazed tile and, after it has dried off, adult mosquitoes of the species Anopheles funestus strain FUMOZ-R (Hunt et al., Med Vet Entomol. 2005 September; 19 (3):271-5) are placed onto the treated tile. The exposure time is 30 minutes.
(§3) 24 hours after contact with the treated surface, mortality in % is determined. 100% means that all mosquitoes have been killed; 0% means that none of the mosquitoes have been killed.

[15] = test system: Aedes aegypti strain MONHEIM; assay: Aedes test (AEDSAE surface treatment); type: in vivo; conditions: read-out: efficacy (mortality)
Procedure: as §1
as §2, with “Aedes aegypti” for “Anopheles funestus”, “MONHEIM” for “FUMOZ-R (Hunt et al., Med Vet Entomol. 2005 September; 19 (3):271-5)”
as §3

[16] = reversed-phase column (C18), Table I-T3

| Compound | logP^a) ([1]; reversed-phase column (C18)) | log P [1, 16] | efficacy ([2]; application rate 5 μg/cm2) [%] | efficacy [3] [%] | efficacy (kill) [4] [%] | efficacy (laying of fertile eggs) [5] [%] | efficacy (laying of fertile eggs) [6] [%] | efficacy (kill) [7] [%] | efficacy (kill) [8] [%] | efficacy (kill) [9] [%] | efficacy ([10]; application rate 100 g/ha) [%] | efficacy ([11]; application rate 500 g/ha) [%] | efficacy ([12]; application rate 500 g/ha) [%] | efficacy ([13]; application rate 500 g/ha) [%] | efficacy ([10]; application rate 500 g/ha) [%] | logP^a) [1] | other results |
| --- | --- | --- | --- | --- | --- | --- | --- | --- | --- | --- | --- | --- | --- | --- | --- | --- | --- |
| O=C(NC1CC1)c1cc(-c2cnn(-c3c(Cl)cc(C(F)(C(F)(F)F)C(F)(F)F)cc3C(F)(F)F)c2)cnc1Cl [I-T3-112] | 4.0 | 4.0 | 100 | 100 | 100 | 100 | 100 | 100 | 100 | 100 | 100 | 100 | 100 | 100 |  |  |  |
| O=C(NC1CC1)c1cc(-c2cc(-c3c(Cl)cc(C(F)(C(F)(F)F)C(F)(F)F)cc3Cl)on2)ccc1Cl [I-T23-1, 2-chloro-N-cyclopropyl-5-[5-[2,6-dichloro-4-[1,2,2,2-tetrafluoro-1-(trifluoromethyl)ethyl]phenyl]isoxazol-3-yl]benzamide] |  |  |  | 100 | 100 |  | 100 |  |  | 100 |  |  |  |  |  |  | logP ([1]; HPLC, C18 reversed phase, acetonitrile/water with formic acid, EEC Directive 79/831 Annex V.A8): 5.0; pest or weed control at 0.02 mg ([5]; Rhipicephalus microplus, 168 h, read-out: efficacy (laying of fertile eggs)): 100%; mortality at 20 mg/m2 [14]: 90 to 100%; mortality at 20 mg/m2 [15]: 90 to 100%; mortality at 100 mg/m2 [15]: 90 to 100% |
| N#CC1(NC(=O)c2cc(-c3cnn(-c4c(Cl)cc(C(F)(C(F)(F)F)C(F)(F)F)cc4OC(F)(F)F)c3)ccc2Cl)CC1 [I-T3-163] | 4.5 | 4.5 | 100 | 100 | 100 | 100 | 100 | 100 | 100 | 100 | 90 |  |  |  |  |  | efficacy ([11]; application rate 100 g/ha): 100%; efficacy ([12]; application rate 100 g/ha): 100%; efficacy ([13]; application rate 100 g/ha): 100% |
| Cc1cc(C(F)(C(F)(F)F)C(F)(F)F)cc(C(F)(F)F)c1-n1cc(-c2cnc(Cl)c(C(=O)NC3CC3)c2)cn1 [I-T3-106] | 4.0 | 4.0 | 100 | 100 | 100 | 100 | 100 | 100 | 100 | 100 |  | 100 | 100 | 100 | 100 |  |  |
| Cc1cc(C(F)(C(F)(F)F)C(F)(F)F)cc(C)c1-n1cc(-c2ccc(Cl)c(C(=O)NC3(C#N)CC3)c2)cn1 [I-T3-3] |  |  | 100 | 100 | 100 | 100 | 100 | 100 | 100 | 100 | 100 |  |  |  |  | 4.2 | logP^a) [1, 16]: 4.2; efficacy ([11]; application rate 100 g/ha): 100%; efficacy ([12]; application rate 100 g/ha): 100%; efficacy ([13]; application rate 100 g/ha): 100% |
| N#CC1(NC(=O)c2cc(-c3cnn(-c4c(Cl)cc(C(F)(C(F)(F)F)C(F)(F)F)cc4C(F)(F)F)c3)cnc2Cl)CC1 [I-T3-114] | 4.0 | 4.0 |  | 100 | 100 | 100 | 100 | 100 | 100 | 100 |  | 100 | 100 | 100 | 90 |  | efficacy ([2]; application rate 1 μg/cm2): 100% |
| O=C(NC1CC1)c1cc(-c2cnn(-c3c(Cl)cc(C(F)(F)F)cc3Cl)c2)cnc1Cl [I-T3-98] |  | 3.1 | 100 | 100 | 100 | 100 | 100 | 100 | 100 | 90 | 90 | 100 | 100 | 100 |  | 3.1 |  |
| N#CC1(NC(=O)c2cc(-c3cnn(-c4c(Cl)cc(C(F)(C(F)(F)F)C(F)(F)F)cc4Cl)c3)cnc2Cl)CC1 [I-T3-43] |  |  | 80 | 100 | 100 | 100 | 100 | 100 | 100 | 100 |  | 100 | 100 | 100 | 100 | 3.8 | logP^a) [1, 16]: 3.8 |
| CCc1cc(C(F)(C(F)(F)F)C(F)(F)F)cc(C)c1-n1cc(-c2cnc(Cl)c(C(=O)NC3CC3)c2)cn1 [I-T3-109] | 4.2 | 4.2 | 100 | 100 | 100 | 100 | 100 | 100 | 100 | 100 |  | 100 | 100 | 100 | 90 |  |  |
| Cc1cc(C(F)(C(F)(F)F)C(F)(F)F)cc(C(F)(F)F)c1-n1cc(-c2cnc(Cl)c(C(=O)NC3(C#N)CC3)c2)cn1 [I-T3-108] | 4.0 | 4.0 |  | 100 | 100 | 100 | 100 | 100 | 100 | 100 |  | 100 | 100 | 100 | 100 |  | efficacy ([2]; application rate 1 μg/cm2): 100% |
